Reference: US20260041640A1 (INCYCLIX BIO, LLC, priority 2023, published 2026)
In brackets after ≈: the same amount, converted by molar mass. Read-outs that look alike come from different tables or passages of the source.

Experiments:
[1] = Plasma protein binding, mouse; assay type: in vitro ADME
Text: (§1) Additionally, the whole blood-to-plasma ratio (KWB/P) in humans is 6.20, which also exceeds the other species tested (Table 7).

[2] = Plasma protein binding, rat; assay type: in vitro ADME
Text: as §1

[3] = Plasma protein binding, dog; assay type: in vitro ADME
Text: as §1

[4] = Plasma protein binding, human; assay type: in vitro ADME
Text: as §1

[5] = Aqueous solubility of INX-315; assay type: physicochemical
[6] = Non-Sink Dissolution Method (gastric to intestinal transfer); assay type: physicochemical
Procedure: The Gastric Media comprised 0.01 N HCl (pH 2.0) at a dose of 1500 μgA/mL. Timepoints tested were 10 min and 25 min following microcentrifugation of 100 μL aliquots diluted 5× in MeOH at 18,500 g. The Intestinal Media comprised 0.5 wt % SIF in Phosphate Buffer (pH 6.5) at a dose of 500 μgA/mL. Timepoints tested were 5 min, 30 min, 45 min, 70 min, 180 min, and 24 hr (post-transfer) following microcentrifugation of 100 μL aliquots diluted 5× in MeOH at 18,500 g. Timepoints tested were 5 min, 45 min, and 24 hr (post-transfer) following ultracentrifugation of 100 μL aliquots diluted 5× in MeOH at 470,000 g. The supernatants were assayed by HPLC.

[7] = tested on: LU5202 [small cell lung cancer (SCLC)] patient-derived xenograft (PDX) model; assay type: in vivo
Procedure: 8-week-old NOD/SCID female mice (n=59) were split into two cohorts. A total of 29 mice were enrolled in cohort 1 of the study. A total of 30 mice were enrolled in […] of the study. When the average tumor volume reached 150-250 mm^3, all animals were randomly allocated to the 6 different study groups using Study Log software (Table 24). Animals were monitored weekly for palpable tumors, or any changes in appearance or behavior. Once tumors were palpable, tumors were measured at least once weekly using calipers. Body weight was measured at least 2 times per week following randomization and initiation of treatment.

[8] = tested on: ST4316B ER+, CDK4/6 inhibitor-resistant breast PDX model; assay: ST4316B ER+, CDK4/6 inhibitor-resistant breast PDX model; assay type: in vivo, athymic nude mice
Procedure: Athymic nude, outbread homozygous (Crl:NU(NCr)-Foxnl^nu) 6-12-week-old ST4316B [HX] mice were analyzed. Tumor fragments from ST4316B were harvested from host animals and implanted into immune-deficient mice and the study initiated at a mean tumor volume of approximately 150-300 mm^3. […] Data collected from this study included animal weights, observations, and tumor dimensions. This information was used to determine agent tolerability based on weight change and gross physiologic changes; and anticancer activity based on tumor growth inhibition or regression. […]

[9] = First-in-human clinical study: safety and tolerability; assay type: in vivo
Procedure: (§2) All INX-315 tablets were taken at approximately the same time(s) each day.
(§3) Cohort 1 enrollment of 6 subjects dosed at 100 mg oral QD was completed in October of 2023.

[10] = tested on: recurrent advanced/metastatic cancer; assay: First-in-human clinical study: preliminary antitumor activity; assay type: in vivo
Procedure: as §3

[11] = Toxicity and toxicokinetics studies, mouse; assay type: in vivo, mice
Procedure: (§4) Nominal dose values and sampling times were used for calculations. Any concentration reported as BLQ (LLOQ<1.0 ng/mL) was set equal to zero. Toxicokinetic analyses included Cmax, Tmax, AUC0-24, t1/2, RA Cmax, and RA AUC0-24.
(§5) Following this, human dose exposure was simulated using a combined whole blood and plasma compartment PK model using allometry and whole blood parameter estimates for the absorption rate constants and bioavailability per animal species. Absolute dose administration was used for modeling. V1, CL, V2, and Q parameters were extrapolated to human using allometric scaling. CL, Q by exponent equaled 0.818. V1, V2 by exponent equaled 1.03. Human body weight was set to 75 kg. Absorption rate constant (KA) was in reasonable ranges in mouse, rat, and dog, with values of 0.44, 0.53, and 0.18 (1/hr), respectively.

[12] = Toxicity and toxicokinetics studies, rat; assay type: in vivo, Sprague Dawley rats
Procedure: as §4, §5, §2

[13] = Toxicity and toxicokinetics studies, dog; assay type: in vivo, beagle dogs
Text: Following this, human dose exposure was simulated using a combined whole blood and plasma compartment PK model using allometry and whole blood parameter estimates for the absorption rate constants and bioavailability per animal species. Absolute dose administration was used for modeling. V1, CL, V2, and Q parameters were extrapolated to human using allometric scaling. […] Human body weight was set to 75 kg.

CDK2/cyclin E = CDK2/cyclin E (Homo sapiens, UniProt P24941); settings: intracellular; read-out: Nanobret IC50 CDK2/cyclin E; cited from earlier work
Ovcar-3 = settings: BLU-222: based on Ovcar-3 cell cycle data (maximum G1 arrest); read-out: Cellular IC50; cited from earlier work
[14] = Cohort 1, 100 mg QD, 6 subjects

Structure (SMILES): NS(=O)(=O)c1ccc(Nc2ncc3cc4n(c3n2)C2(CCCCC2)C(=O)NN4)cc1 [INX-315]
- fraction unbound [1]: 0.023
- fraction unbound [2]: 0.018
- fraction unbound [3]: 0.04
- fraction unbound [4]: 0.056
- solubility ([5]; 0.01 N HCl, simulated gastric fluid, 0.01N HCl, read-out: Dissolved Drug Solubility): 269 ± 92 µg/mL (≈ 629 µM)
- solubility ([5]; 50 mM Na acetate, aqueous buffer, 50 mM Na Acetate, read-out: Total Drug Solubility): 19 ± 7 µg/mL (≈ 44.4 µM)
- solubility ([5]; 0.224% SIF in PBS, fassif, 0.224% SIF in PBS, read-out: Dissolved Drug Solubility): 5.3 ± 0.4 µg/mL (≈ 12.4 µM)
- solubility ([5]; 0.224% SIF in PBS, fassif, 0.224% SIF in PBS, read-out: Total Drug Solubility): 6.1 ± 0.4 µg/mL (≈ 14.3 µM)
- solubility ([5]; 0.5% SIF in PBS, fassgf or other biorelevant, 0.5% SIF in PBS, read-out: Dissolved Drug Solubility): 11 ± 1 µg/mL (≈ 25.7 µM)
- solubility ([5]; 0.5% SIF in PBS, fassgf or other biorelevant, 0.5% SIF in PBS, read-out: Total Drug Solubility): 15 ± 0.2 µg/mL (≈ 35.1 µM)
- solubility ([5]; 0.5% Tween-80 in PBS, aqueous with cosolvent or surfactant or cyclodextrin, 0.5% Tween-80 in PBS, read-out: Dissolved Drug Solubility): 59 ± 8 µg/mL (≈ 138 µM)
- solubility ([5]; 0.5% Tween-80 in PBS, aqueous with cosolvent or surfactant or cyclodextrin, 0.5% Tween-80 in PBS, read-out: Total Drug Solubility): 55 ± 1 µg/mL (≈ 129 µM)
- solubility ([5]; 1% SIF in PBS, fassgf or other biorelevant, 1% SIF in PBS, read-out: Dissolved Drug Solubility): 16.3 ± 0.1 µg/mL (≈ 38.1 µM)
- solubility ([5]; 1% SIF in PBS, fassgf or other biorelevant, 1% SIF in PBS, read-out: Total Drug Solubility): 16.4 ± 0.1 µg/mL (≈ 38.4 µM)
- solubility ([5]; 1% SLS in water, aqueous with cosolvent or surfactant or cyclodextrin, 1% SLS in H2O, read-out: Dissolved Drug Solubility): 40 ± 1 µg/mL (≈ 93.6 µM)
- solubility ([5]; 5% TPGS in PBS, aqueous with cosolvent or surfactant or cyclodextrin, 5% TPGS in PBS, read-out: Dissolved Drug Solubility): 313 ± 21 µg/mL (≈ 732 µM)
- solubility ([5]; 5% TPGS in PBS, aqueous with cosolvent or surfactant or cyclodextrin, 5% TPGS in PBS, read-out: Total Drug Solubility): 305 ± 10 µg/mL (≈ 713 µM)
- solubility ([5]; PBS/Blank FaSSIF, aqueous buffer, PBS/Blank FaSSIF, read-out: Total Drug Solubility): 17 ± 2 µg/mL (≈ 39.8 µM)
- BCS classification ([5]; high permeability, low solubility): BCS-2
- solubility ([5]; water, H2O, read-out: Total Drug Solubility): 61 ± 14 µg/mL (≈ 143 µM)
- Non-Sink Dissolution, Micro @ 5 min ([6]; microcentrifuged (total drug), 5 min): 13
- Non-Sink Dissolution, Micro @ 60 min ([6]; microcentrifuged (total drug), 60 min): 12
- Non-Sink Dissolution, Micro @ 180 min ([6]; microcentrifuged (total drug), 180 min): 13
- Non-Sink Dissolution, Ultra @ 5 min ([6]; ultracentrifuged (dissolved drug), 5 min): 13
- Non-Sink Dissolution, Ultra @ 60 min ([6]; ultracentrifuged (dissolved drug), 60 min): 12
- Non-Sink Dissolution, Ultra @ 180 min ([6]; ultracentrifuged (dissolved drug), 180 min): 12
- tumor growth inhibition ([7]; cohort 1, INX-315 100 mg/kg added to chemotherapy (cisplatin + etoposide)): 70%
- body weight / tolerability ([7]; cohort 1, chemotherapy and INX-315): lost weight and did not tolerate the treatment well
- tumor growth inhibition ([7]; cohort 1, monotherapy 100 mg/kg BID PO): 62%
- tumor growth inhibition ([7]; cohort 1, monotherapy 150 mg/kg BID PO): 66%
- tumor growth inhibition ([7]; cohort 2, INX-315 100 mg/kg added to chemotherapy): 94%
- tumor growth inhibition ([7]; cohort 2, monotherapy 100 mg/kg BID PO): 70%
- tumor growth inhibition ([7]; cohort 2, monotherapy 150 mg/kg BID PO): 87%
- tumor growth inhibition versus control ([8]; Day 31, INX-315 100 mg/kg BID + ribociclib 50 mg/kg QD, p=0.0033): statistically significant tumor growth inhibition
- tumor growth inhibition percentage (TGI %) ([8]; Day 45, INX-315 100 mg/kg BID + ribociclib 50 mg/kg QD (Group 8), p<0.0002): 65%
- safety issues ([9]; 200 mg QD): no new safety issues
- DLTs ([9]; Cohort 1, 100 mg QD): No DLTs
- changes in complete blood counts or clinical chemistries ([9]; Cohort 1, 100 mg QD): No significant changes
- tolerability ([9]; Cohort 1, 100 mg QD): well tolerated
- partial response (PR) subjects [10, 14]: 1 subjects
- progressive disease (PD) subjects [10, 14]: 2 subjects
- stable disease (SD) subjects [10, 14]: 3 subjects
- response ([10]; Subject 101-001 (ER+/HER2− breast cancer), 100 mg QD): confirmed PR
- decrease in TL ([10]; Subject 201-001, end of Cycle 2, 100 mg QD): 10%
- Absorption rate constant (KA) ([11]; model parameter estimate): 0.44 h⁻¹
- bioavailability ([11]; whole blood, po, read-out: Bioavailability (F1)): 62%
- bioavailability ([12]; both sexes, Sprague Dawley, rat, in vivo, po): 8%
- Absorption rate constant (KA) ([12]; both, Sprague Dawley, rat, in vivo): 0.53 h⁻¹
- human equivalent dose (HED) of the no observed adverse effect level (NOAEL) ([12]; rats): 9730 mg/day
- safety margin of 100 mg QD starting dose vs HED of NOAEL ([12]; rats): 97 fold
- Absorption rate constant (KA) ([13]; beagle, dog, in vivo): 0.18 h⁻¹
- HED of the highest nonseverely toxic dose (HNSTD) ([13]; dogs): 16,216 mg/day
- safety margin of 100 mg QD starting dose vs HED of HNSTD ([13]; dogs): 160 fold
- IC50 (CDK2/cyclin E): 2 nM
- IC50 (Ovcar-3): < 100 nM
